Like-named read-outs stand apart in the source and are kept apart here.

Usually Kd stands for a measure of binding affinity in units of concentration.

One series deals with T1, CebR (SCAB57761) (Streptomyces scabiei, UniProt C9Z452).
T1 construct: gene SCAB_57761; CebR-His6 (pure)
The series is described as follows: EMSA: loss of DNA binding of pure CebR-His6 preincubated with the sugar. It counts as biochemical. For orientation: A gel shift assay detects complexes by their altered migration in electrophoresis.

In series [1] the target is T2, CebE (SCAB57751, CebE^scab) (Streptomyces scabiei, UniProt C9Z451).
T2 construct: gene SCAB_57751; N-terminally 6His-tagged CebE without its first 44 codons (signal peptide and membrane-anchoring lipopeptide), produced in E. coli
T2 sequence (C9Z451 45-454): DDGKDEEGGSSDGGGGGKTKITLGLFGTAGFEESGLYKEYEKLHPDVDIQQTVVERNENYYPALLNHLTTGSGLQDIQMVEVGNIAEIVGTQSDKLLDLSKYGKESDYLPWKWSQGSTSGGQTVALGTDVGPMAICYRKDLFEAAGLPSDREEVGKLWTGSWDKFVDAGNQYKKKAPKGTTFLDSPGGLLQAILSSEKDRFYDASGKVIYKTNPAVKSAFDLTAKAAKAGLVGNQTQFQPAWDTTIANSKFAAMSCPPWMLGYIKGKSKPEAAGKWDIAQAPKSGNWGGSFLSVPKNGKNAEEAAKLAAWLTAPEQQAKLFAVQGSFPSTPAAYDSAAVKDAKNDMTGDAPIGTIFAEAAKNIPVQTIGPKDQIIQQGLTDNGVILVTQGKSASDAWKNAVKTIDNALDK
Description: intrinsic tryptophan fluorescence titration of purified protein. It counts as binding.

Another series addresses CebR (UniProt C9Z452 1-352). The series is described as follows: EMSA; CebR 0-480 nM; no oligosaccharide; EMSA as in earlier work (buffer, salt, pH not given); 15 pmol Cy5 probe and 150 pmol CebR-6His in Methods, legend gives 6 nM probe (panel D) and CebR 0-480 nM (panel C); 1% agarose gel run at room temperature. The conditions noted are these: protein: recombinant; tags: His6 (printed as CebR-6His / CebR-His6); chain copies: 2; blunt.

For `OC[C@H]1O[C@@H](O[C@H]2[C@H](O)[C@@H](O)C(O)O[C@@H]2CO)[C@H](O)[C@@H](O)[C@@H]1O` (some centres unmarked) [(Glc)2, cellobiose], the “EMSA: loss of DNA binding of pure CebR-His6 preincubated with the sugar” value at CebR (SCAB57761) is “EMSAs demonstrating that cellobiose and cellotriose are able to inhibit the DNA-binding ability of CebR”. In series [1], this molecule gave a dissociation constant Kd of 14 nM. Take `OC[C@H]1O[C@@H](O[C@H]2[C@H](O)[C@@H](O)[C@H](O[C@H]3[C@H](O)[C@@H](O)C(O)O[C@@H]3CO)O[C@@H]2CO)[C@H](O)[C@@H](O)[C@@H]1O` (some centres unmarked) [(Glc)3, cellotriose]: the “EMSA: loss of DNA binding of pure CebR-His6 preincubated with the sugar” value on CebR (SCAB57761) is “EMSAs demonstrating that cellobiose and cellotriose are able to inhibit the DNA-binding ability of CebR”. For the same molecule, the Kd in series [1] (read-out: Kd) is 2 nM.

B1: cbsbglC probe (dsDNA)
DNA 1: CGACCACCAATGGGAGCGCTTCCATGCCTGAACC
DNA 2: GGTTCAGGCATGGAAGCGCTCCCATTGGTGGTCG
Turning to B1, the binding result with CebR was “binds”.
